Reference: patent US20240158385A1, “NOVEL COMPOUNDS” (Cerevance, Inc., priority 2021, published 2024)

biological target: T1, human KCNK13 (Homo sapiens, UniProt Q9HB14); assay: KCNK13 antagonist activity, thallium (Tl+) flux FLIPR assay; format: cell-based; conditions: HEK 293 cells stably expressing human KCNK13; Tl+ sensitive dye, FLIPR; compounds 15 minutes prior to thallium sulfate; 10 point half log curves from 10 PM; read-out: hKCNK13 IC50
T1 construct: expressed in transfected cells
T1 sequence (Q9HB14 1-408): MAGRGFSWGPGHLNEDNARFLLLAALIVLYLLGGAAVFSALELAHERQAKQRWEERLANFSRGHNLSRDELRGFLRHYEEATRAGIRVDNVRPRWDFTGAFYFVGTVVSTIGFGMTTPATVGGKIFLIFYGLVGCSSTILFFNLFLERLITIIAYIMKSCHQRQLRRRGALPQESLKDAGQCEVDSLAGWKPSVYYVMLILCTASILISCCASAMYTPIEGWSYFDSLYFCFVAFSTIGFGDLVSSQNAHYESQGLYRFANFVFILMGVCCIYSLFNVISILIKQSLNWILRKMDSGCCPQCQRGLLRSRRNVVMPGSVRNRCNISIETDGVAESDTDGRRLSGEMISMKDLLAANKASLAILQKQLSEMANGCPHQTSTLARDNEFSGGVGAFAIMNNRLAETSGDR
Method in brief: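 HEK 293 cells stably expressing human KCNK13 loaded with Tl+-sensitive dye for 1 h at room temperature. Compounds (10-point half-log curves) preincubated 15 min before thallium sulfate stimulus, fluorescence tracked by FLIPR. IC50 from ten-point curves, each point the mean of two wells.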

| IC50 [nM] | SMILES |
| --- | --- |
| < 200 | Cc1nonc1-c1nc2ccccc2n1Cc1cccnc1C#N [Example 67, 3-[[2-(4-methyl-1,2,5-oxadiazol-3-yl)benzimidazol-1-yl]methyl]pyridine-2-carbonitrile] |
| < 50 | C=Cc1nsnc1-c1nc2ccccc2n1Cc1cccnc1 [Example 89, 3-[1-(pyridin-3-ylmethyl)benzimidazol-2-yl]-4-vinyl-1,2,5-thiadiazole] |
| < 50 | Nc1nonc1-c1nc2ccccc2n1Cc1cccnc1 [Example 90, 4-[1-(pyridin-3-ylmethyl)benzimidazol-2-yl]-1,2,5-oxadiazol-3-amine] |
| < 100 | CNc1nsnc1-c1nc2ccccc2n1Cc1cccnc1 [Example 96, N-methyl-4-[1-(pyridin-3-ylmethyl)benzimidazol-2-yl]-1,2,5-thiadiazol-3-amine] |
| < 100 | N#Cc1nsnc1-c1nc2ccccc2n1Cc1cccnc1 [Example 99, 4-[1-(pyridin-3-ylmethyl)benzimidazol-2-yl]-1,2,5-thiadiazole-3-carbonitrile] |
| < 200 | Cc1ccsc1-c1nc2ccccc2n1Cc1cccnc1 [Example 100, 2-(3-methylthiophen-2-yl)-1-(pyridin-3-ylmethyl)benzimidazole] |
| < 100 | Cc1nonc1-c1nc2ccccc2n1Cc1cccnc1 [Example 101, 3-methyl-4-[1-(pyridin-3-ylmethyl)benzimidazol-2-yl]-1,2,5-oxadiazole] |
| < 200 | Cc1snnc1-c1nc2ccccc2n1Cc1cccnc1 [Example 102, 5-methyl-4-[1-(pyridin-3-ylmethyl)benzimidazol-2-yl]-1,2,3-thiadiazole] |
| < 200 | Cc1ocnc1-c1nc2ccccc2n1Cc1cccnc1 [Example 103, 5-methyl-4-[1-(pyridin-3-ylmethyl)benzimidazol-2-yl]oxazole] |
| < 200 | Cc1conc1-c1nc2ccccc2n1Cc1cccnc1 [Example 104, 4-methyl-3-[1-(pyridin-3-ylmethyl)benzimidazol-2-yl]isoxazole] |
| < 200 | CCc1nsnc1-c1nc2ccccc2n1Cc1cccnc1 [Example 105, 3-ethyl-4-[1-(pyridin-3-ylmethyl)benzimidazol-2-yl]-1,2,5-thiadiazole] |
| < 200 | Nc1nonc1-c1nc2ccccc2n1Cc1ccnnc1 [Example 107, 4-[1-(pyridazin-4-ylmethyl)benzimidazol-2-yl]-1,2,5-oxadiazol-3-amine] |
| < 500 | Fc1nsnc1-c1nc2ccccc2n1Cc1cccnc1 [Example 108, 3-fluoro-4-[1-(pyridin-3-ylmethyl)benzimidazol-2-yl]-1,2,5-thiadiazole] |
| < 500 | Cc1onc(-c2nc3ccccc3n2Cc2cccnc2)c1C [Example 111, 4,5-dimethyl-3-[1-(pyridin-3-ylmethyl)benzimidazol-2-yl]isoxazole] |
| < 500 | Cc1nocc1-c1nc2ccccc2n1Cc1cccnc1 [Example 112, 3-methyl-4-[1-(pyridin-3-ylmethyl)benzimidazol-2-yl]isoxazole] |

The remaining lines, values behind:

| SMILES | IC50 [nM] |
| --- | --- |
| COc1cc(Cn2c(-c3nonc3C)nc3ccccc32)ccn1 [Example 66, 3-[1-[(2-methoxypyridin-4-yl)methyl]benzimidazol-2-yl]-4-methyl-1,2,5-oxadiazole] | < 200 |
| Fc1cccc2nc(-c3cnns3)n(Cc3cccnc3)c12 [Example 68, 5-[7-fluoro-1-(pyridin-3-ylmethyl)benzimidazol-2-yl]-1,2,3-thiadiazole] | < 200 |
| Cc1cccnc1Cn1c(-c2nonc2C)nc2ccccc21 [Example 69, 3-methyl-4-[1-[(3-methylpyridin-2-yl)methyl]benzimidazol-2-yl]-1,2,5-oxadiazole] | < 200 |
| CCOc1cccc2nc(-c3nonc3C)n(Cc3ccncc3)c12 [Example 70, 3-[7-ethoxy-1-(pyridin-4-ylmethyl)benzimidazol-2-yl]-4-methyl-1,2,5-oxadiazole] | < 500 |
| Cc1nonc1-c1nc2cccc(N)c2n1Cc1cccnc1 [Example 72, 2-(4-methyl-1,2,5-oxadiazol-3-yl)-3-(pyridin-3-ylmethyl)benzimidazol-4-amine] | < 500 |
| CNc1ccc(Cn2c(-c3nonc3C)nc3ccccc32)cn1 [Example 73, N-methyl-5-[[2-(4-methyl-1,2,5-oxadiazol-3-yl)benzimidazol-1-yl]methyl]pyridin-2-amine] | < 500 |
| Cc1cc(Cn2c(-c3nonc3C)nc3ccccc32)ccn1 [Example 74, 3-methyl-4-[1-[(2-methylpyridin-4-yl)methyl]benzimidazol-2-yl]-1,2,5-oxadiazole] | < 500 |
| Cc1cc(C)nc(Cn2c(-c3nonc3C)nc3ccccc32)c1 [Example 75, 3-[1-[(4,6-dimethylpyridin-2-yl)methyl]benzimidazol-2-yl]-4-methyl-1,2,5-oxadiazole] | < 500 |
| Cc1nonc1-c1nc2ccccc2n1Cc1ccc[n+]([O-])c1 [Example 76, 3-methyl-4-[1-[(1-oxidopyridin-1-ium-3-yl)methyl]benzimidazol-2-yl]-1,2,5-oxadiazole] | < 500 |
| Cc1nonc1-c1nc2ccccc2n1Cc1cc[n+]([O-])cc1 [Example 77, 3-methyl-4-[1-[(1-oxidopyridin-1-ium-4-yl)methyl]benzimidazol-2-yl]-1,2,5-oxadiazole] | < 1000 |
| Cc1cccc(Cn2c(-c3nonc3C)nc3ccccc32)n1 [Example 78, 3-methyl-4-[1-[(6-methylpyridin-2-yl)methyl]benzimidazol-2-yl]-1,2,5-oxadiazole] | < 500 |
| Cc1nonc1-c1nc2ccccc2n1Cc1ccccn1 [Example 79, 3-methyl-4-[1-(pyridin-2-ylmethyl)benzimidazol-2-yl]-1,2,5-oxadiazole] | < 500 |
| Cc1nsnc1-c1nc2ccc(F)cc2n1Cc1ccc(C#N)nc1 [Example 80, 5-[[6-fluoro-2-(4-methyl-1,2,5-thiadiazol-3-yl)benzimidazol-1-yl]methyl]pyridine-2-carbonitrile] | < 1000 |
| CNc1cccc2nc(-c3nonc3C)n(Cc3cccnc3)c12 [Example 81, N-methyl-2-(4-methyl-1,2,5-oxadiazol-3-yl)-3-(pyridin-3-ylmethyl)benzimidazol-4-amine] | < 1000 |
| Cc1nonc1-c1nc2ccccc2n1Cc1ncccc1F [Example 82, 3-[1-[(3-fluoropyridin-2-yl)methyl]benzimidazol-2-yl]-4-methyl-1,2,5-oxadiazole] | < 1000 |
| Cc1nonc1-c1nc2c(F)ccc(F)c2n1Cc1cnc(C#N)nc1 [Example 83, 5-[[4,7-difluoro-2-(4-methyl-1,2,5-oxadiazol-3-yl)benzimidazol-1-yl]methyl]pyrimidine-2-carbonitrile] | < 200 |
| Cc1nonc1-c1nc2c(F)ccc(F)c2n1Cc1cncnc1 [Example 84, 3-[4,7-difluoro-1-(pyrimidin-5-ylmethyl)benzimidazol-2-yl]-4-methyl-1,2,5-oxadiazole] | < 100 |
| Nc1nonc1-c1nc2ccccc2n1Cc1ccc(Br)nc1 [Example 88, 4-(1-((6-bromopyridin-3-yl)methyl)benzimidazol-2-yl)-1,2,5-oxadiazol-3-amine] | < 50 |
| Nc1nonc1-c1nc2ccc(F)cc2n1Cc1ccncc1 [Example 91, 4-[6-fluoro-1-(pyridin-4-ylmethyl)benzimidazol-2-yl]-1,2,5-oxadiazol-3-amine] | < 50 |
| Nc1nonc1-c1nc2cc(F)ccc2n1Cc1ccncc1 [Example 92, 4-[5-fluoro-1-(pyridin-4-ylmethyl)benzimidazol-2-yl]-1,2,5-oxadiazol-3-amine] | < 50 |
| COc1cc(Cn2c(-c3nonc3N)nc3ccccc32)ccn1 [Example 93, 4-[1-[(2-methoxypyridin-4-yl)methyl]benzimidazol-2-yl]-1,2,5-oxadiazol-3-amine] | < 50 |
| Nc1nonc1-c1nc2ccccc2n1Cc1ccnc(C(F)(F)F)c1 [Example 94, 4-[1-[[2-(trifluoromethyl)pyridin-4-yl]methyl]benzimidazol-2-yl]-1,2,5-oxadiazol-3-amine] | < 100 |
| Nc1nonc1-c1nc2ccccc2n1Cc1cncc(C(F)(F)F)c1 [Example 95, 4-[1-[[5-(trifluoromethyl)pyridin-3-yl]methyl]benzimidazol-2-yl]-1,2,5-oxadiazol-3-amine] | < 100 |
| Nc1nonc1-c1nc2ccccc2n1Cc1ccc(C(F)(F)F)nc1 [Example 97, 4-[1-[[6-(trifluoromethyl)pyridin-3-yl]methyl]benzimidazol-2-yl]-1,2,5-oxadiazol-3-amine] | < 100 |
| Cc1nonc1-c1nc2ccccc2n1Cc1ccncc1 [Example 98, 3-methyl-4-[1-(pyridin-4-ylmethyl)benzimidazol-2-yl]-1,2,5-oxadiazole] | < 100 |
| Nc1nonc1-c1nc2ccccc2n1Cc1ccncn1 [Example 106, 4-[1-(pyrimidin-4-ylmethyl)benzimidazol-2-yl]-1,2,5-oxadiazol-3-amine] | < 200 |
| Nc1nonc1-c1nc2ccccc2n1Cc1cccnc1C(F)(F)F [Example 109, 4-[1-[[2-(trifluoromethyl)pyridin-3-yl]methyl]benzimidazol-2-yl]-1,2,5-oxadiazol-3-amine] | < 500 |
| Cc1nonc1-c1nc2ccncc2n1Cc1cccnc1 [Example 110, 3-methyl-4-[3-(pyridin-3-ylmethyl)imidazo[4,5-c]pyridin-2-yl]-1,2,5-oxadiazole] | < 500 |
